This passage reports TGI and GI50 results from PubChem BioAssay (NCI).

The structures appear in SMILES notation. Several values for one entry are separate records, joined by “and”; a condition that tells them apart may be missing. Equal values may be shown once.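 1) Cells in 96-well plates. 2) Compound, 48 h, 5 concentrations. 3) Linear interpolation between surrounding doses. 4) Unreached endpoint = highest concentration. GI50 = concentration required for 50% inhibition of growth. TGI: total growth inhibition.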

What all share (assay): NCI tumour cell line growth inhibition, 48 h
Test [1] deals with KM12 colon.
Test [2] concerns OVCAR-8 ovarian.
Test [3] deals with M14 melanoma.
In test [4] the test system is U251 CNS.
For test [5], the system named is HS 578T breast.
Test [6] has as its system SN12C renal.
For test [7], the system named is EKVX NSCLC.
Test [8] concerns BT-549 breast.
Test [9] deals with MOLT-4 leukemia.
Test [10] deals with T-47D breast.

Take `O=S1(=O)c2cnccc2NC(=NCc2cccc3ccccc23)N1c1ccccc1`: the TGI in test [1], in test [2], in test [3], in [4], in test [5] and in [6] was > 100 µM each time. For the same molecule, the TGI in test [7], in [8], in [9] and in test [10] was > 100 µM in each case.

On to `Fc1c(F)c(C(F)(F)F)c(F)c(F)c1N/N=C\c1c[nH]c2ccccc12`, for which the TGI was 4.06 µM in [1]; 21.8 µM in test [2]; 4.21 µM in test [3]; 12.8 µM in test [4]; 28.9 µM in test [5]; 11.8 µM in test [6]. The TGI in test [7] was determined as 11.9 µM; in test [8] it was 7.09 µM; in test [9] it was 10.3 µM; in [10], 18.7 µM.

With `C=C1C(=O)C([Si](C)(C)C)=C2C=C(C)C3(CC3)C12C` (configuration not stated), the TGI in test [1], in [2], in [3], in test [4], in test [5] and in [6] was > 100 µM throughout. In addition, the TGI was 42.2 µM in test [7], 55 µM in [8], 11.9 µM in test [9] and > 100 µM in test [10].

As for `COc1ccc(/C=C2\OC(=O)C(Cl)=C2c2ccc(OC)cc2)cc1`, the TGI in test [1], in test [2], in test [3], in [4], in [5] and in [6] was > 100 µM throughout. For the same molecule, the TGI in test [7], in [8], in test [9] and in test [10] was > 100 µM throughout.

With `Cc1c2ccncc2cc2c1sc1ccncc12`, the TGI in test [1] amounted to 17.1 µM; in [2], 23.7 µM; in test [3], 13.5 µM; in test [4], 14.7 µM; in test [5], 20.4 µM; in test [6] it was 16.5 µM. For the same molecule, the TGI in test [7] was determined as 15.5 µM; in test [8] it was 17.6 µM; in [9], 2.45 µM; in [10], 7.44 µM.

For the molecule `Cc1ccc(NCC2CC/C(=C\c3ccc(Cl)cc3)C2=O)cc1` (configuration not stated), the TGI is 19 µM in [1]; 36.1 µM in test [2]; 28.9 µM in test [3]; 34 µM in test [4]; > 100 µM in [5]; 33.3 µM in [6]. The TGI was > 100 µM in [7], 36.5 µM in test [8], > 32.4 µM in test [9] and 46.5 µM in [10].

Take `CC1(C)C(=O)N(O)C(C)(C)N1O`: the TGI in test [1], in [2], in test [3], in test [4], in test [5] and in test [6] was > 10 µM each time. Besides, the TGI in [7], in test [8], in test [9] and in test [10] was > 10 µM in each case.

For `O=c1n(/N=C/c2ccccc2)c(=O)n2n1C1C=CC2CC1`, the TGI in test [1], in test [2], in test [3], in test [4], in [5] and in [6] was > 100 µM throughout. Further, the TGI in test [7], in [8], in test [9] and in [10] was > 100 µM in each case.

As for `COc1cc2cc(C(=O)N3CC(CCl)c4c3cc(NC(=O)C(C)(C)c3ccccc3[N+](=O)[O-])c3ccccc43)[nH]c2c(OC)c1OC` (configuration not stated), the GI50 in [1] was 48.2 µM; in test [2] it was 6.58 µM; in [3] it was 6.24 µM; in test [5], 270 µM; in test [6], 146 µM; in test [7], 127 µM. In addition, the GI50 in test [8] was 26.1 µM; in test [9], 33.7 µM; in [10], 61.5 µM. Also, the TGI in test [3] is 9.11 µM and 33.2 µM; in test [4], > 600 µM; in test [8], 30.4 µM and 213 µM.

On to `Clc1cccc(Cl)c1C=NC12CC3CC(CC(C3)C1)C2`, for which the TGI in test [1], in test [2], in test [3], in test [4], in test [5] and in test [6] was > 10 µM throughout. Moreover, the TGI in [7], in test [8], in [9] and in test [10] was > 10 µM each time.

Regarding `O=C(O)c1c[nH]c2c(Sc3ccccc3)nccc2c1=O`, the TGI in test [1], in test [2], in [3], in test [4], in test [5] and in test [6] was > 100 µM throughout. Further, the TGI in [7], in test [8], in test [9] and in [10] was > 100 µM in each case.

On to `c1csc(-c2cscc2-c2ccsc2)c1`, for which the TGI in test [1] was > 85.6 µM; in [2], > 100 µM; in test [3], > 100 µM; in test [4] it was > 100 µM; in [5], > 31.6 µM; in test [6], > 100 µM. Moreover, the TGI in [7], in test [8], in test [9] and in test [10] was > 100 µM in each case.
